For test [1], the target named is T1, Casein kinase I isoform alpha (Homo sapiens, UniProt P48729). In words: CSNK1A1 Assay 2. The protocol:
CSNK1A1-inhibitory activity of compounds of the present invention in presence of 1 μM adenosine-tri-phosphate (ATP) was quantified employing the CSNK1A1 assay as described in the following paragraphs. In essence, the enzyme activity is measured by quantification of the adenosine-di-phosphate (ADP), which is generated as a co-product of the enzyme reaction, via the ADP-Glo Kinase Assay kit from the company Promega. This detection system works as follows: In a first step the ATP not consumed in the kinase reaction is quantitatively converted to cAMP employing an adenylate cyclase ( ADP-Glo-reagent ), then the adenylate cyclase is stopped and the ADP generated in the kinase reaction converted to ATP which generates in a luciferase-based reaction a glow-luminescence signal ( Kinase Detection Reagent ). Recombinant fusion protein of N-terminal Glutathion-S-Transferase (GST) and full-length human CSNK1A1, expressed by baculovirus infected insect cells and purified via Glutathion affinity chromatography, was purchased from Life Technologies (product no. PV4174) and used as enzyme. As substrate for the kinase reaction the biotinylated peptide biotin-Ahx-KRRRAL-pS-VASLPGL (C-terminus in amide form) was used which can be purchased e.g. from the company Biosyntan (Berlin-Buch, Germany).For the assay 50 nl of a 100 fold concentrated solution of the test compound in DMSO was pipetted into a white 1536-well microtiter plate (Greiner Bio-One, Frickenhausen, Germany), 2 μL of a solution of CSNK1A1 in aqueous assay buffer [50 mM HEPES pH 7.5, 10% (v/v) glycerol, 10 mM MgCl2, 50 mM NaCl, 1 mM dithiothreitol, 0.01% (w/v) bovine serum albumin, 0.01% (v/v) Triton X-100] were added and the mixture was incubated for 15 min at 22 C. to allow pre-binding of the test compounds to the enzyme before the start of the kinase reaction. […]

Test [2] addresses Casein kinase I isoform delta (Homo sapiens, UniProt P48730). In words: CSNK1D Assay. The protocol: CSNK1D-inhibitory activity of compounds of the present invention in presence of 1 μM adenosine-tri-phosphate (ATP) was quantified employing the CSNK1D assay as described in the following paragraphs. In essence, the enzyme activity is measured by quantification of the adenosine-di-phosphate (ADP), which is generated as a co-product of the enzyme reaction, via the ADP-Glo Kinase Assay kit from the company Promega. This detection system works as follows: In a first step the ATP not consumed in the kinase reaction is quantitatively converted to cAMP employing an adenylate cyclase ( ADP-Glo-reagent ), then the adenylate cyclase is stopped and the ADP generated in the kinase reaction converted to ATP which generates in a luciferase-based reaction a glow-luminescence signal ( Kinase Detection Reagent ).Recombinant fusion protein of N-terminal Glutathion-S-Transferase (GST) and full-length human CSNK1D, expressed by baculovirus infected insect cells and purified via Glutathion affinity chromatography, was purchased from Life Technologies (product no. PV3665) and used as enzyme. […]

Test [3] concerns the target T1, Casein kinase I isoform alpha. The experiment in a line: CSNK1A1 Assay 1. The procedure: CSNK1A1-inhibitory activity of compounds of the present invention in presence of 1 μM adenosine-tri-phosphate (ATP) was quantified employing the CSNK1A1 assay as described in the following paragraphs. In essence, the enzyme activity is measured by quantification of the adenosine-di-phosphate (ADP), which is generated as a co-product of the enzyme reaction, via the ADP-Glo Kinase Assay kit from the company Promega. This detection system works as follows: In a first step the ATP not consumed in the kinase reaction is quantitatively converted to cAMP employing an adenylate cyclase ( ADP-Glo-reagent ), then the adenylate cyclase is stopped and the ADP generated in the kinase reaction converted to ATP which generates in a luciferase-based reaction a glow-luminescence signal ( Kinase Detection Reagent ).Recombinant fusion protein of N-terminal Glutathion-S-Transferase (GST) and full-length human CSNK1A1, expressed by baculovirus infected insect cells and purified via Glutathion affinity chromatography, was purchased from Life Technologies (product no. PV4174) and used as enzyme. […] Subsequently 2.5 μL of the kinase detection reagent (1.2 fold more concentrated than recommended by the producer) were added, the resulting mixture was incubated at 22° C. for 1 h and then the luminescence measured with a suitable measurement instrument (e.g. Viewlux from Perkin-Elmer). […]

Usually IC50 stands for the concentration that inhibits the measured activity by half. Read a high IC50 as weaker potency in that assay.

T1 sequence (P48729 whole entry, canonical isoform): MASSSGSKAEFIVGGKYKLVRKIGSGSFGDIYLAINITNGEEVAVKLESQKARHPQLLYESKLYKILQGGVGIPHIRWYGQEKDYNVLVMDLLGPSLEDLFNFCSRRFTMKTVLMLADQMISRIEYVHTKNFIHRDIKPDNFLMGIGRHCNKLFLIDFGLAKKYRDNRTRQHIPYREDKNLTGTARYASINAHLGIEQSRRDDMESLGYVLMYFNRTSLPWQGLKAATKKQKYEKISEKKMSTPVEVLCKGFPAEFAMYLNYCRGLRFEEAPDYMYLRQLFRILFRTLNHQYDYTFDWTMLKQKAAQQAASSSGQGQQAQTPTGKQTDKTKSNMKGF
Chain of Casein kinase I isoform delta (P48730 whole entry, canonical isoform): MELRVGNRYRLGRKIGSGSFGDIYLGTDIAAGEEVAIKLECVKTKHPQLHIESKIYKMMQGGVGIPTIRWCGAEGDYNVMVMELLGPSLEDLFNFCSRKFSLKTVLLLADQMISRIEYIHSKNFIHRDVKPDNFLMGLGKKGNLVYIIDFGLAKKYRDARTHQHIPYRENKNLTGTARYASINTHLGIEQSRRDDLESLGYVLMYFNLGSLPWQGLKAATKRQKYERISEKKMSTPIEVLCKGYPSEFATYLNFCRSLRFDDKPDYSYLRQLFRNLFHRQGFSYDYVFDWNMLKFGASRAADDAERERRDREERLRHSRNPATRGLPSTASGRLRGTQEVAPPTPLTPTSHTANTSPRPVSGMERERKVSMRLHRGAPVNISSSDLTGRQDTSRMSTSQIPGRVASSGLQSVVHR

Turning to `CC(=O)Nc1cc(-c2[nH]c3c(c2Nc2ccccc2)C(=O)N(C)CC3)ccn1`, the IC50 in test [1] is 11 nM.

On to `CC1CN(C)C(=O)c2c1[nH]c(-c1ccnc(NC(=O)C(CC(F)F)c3ccc(F)cc3)c1)c2Nc1ccccc1` (mixture of isomers) [US20230365554, Example 10], for which the results for the IC50 in test [1] and in test [2] were 5.4 nM and 9.1 nM, respectively.

As to `CN1CCc2[nH]c(-c3ccnc(NC(=O)[C@@H]4C[C@H]4F)c3)c(Nc3ccccc3)c2C1=O` (relative stereo) [WO 2016/120196, Example 25], 63 nM corresponded to half-maximal inhibition in test [3] (IC50).

With `Cc1cn(C)c(=O)c2c(Nc3ccccc3)c(-c3ccnc(NC(=O)Cc4ccc(F)cc4)c3)[nH]c12` [US20230365554, Example 38], the IC50 came to 4.2 nM in test [1] and 6.6 nM in test [2].

Source of the values: BindingDB's records for patent US20230365554 (The Broad Institute, 2023).
